Drawing on ChEMBL document CHEMBL1137117, “Cinnamic acid esters as potent inhibitors of fungal 17beta-hydroxysteroid dehydrogenase--a model enzyme of the short-chain dehydrogenase/reductase superfamily” (Bioorg Med Chem Lett, 2004), this text covers IC50 for 16 compounds.

Molecules are shown by their SMILES.

As a reminder, the IC50 is the concentration at which inhibition is half-maximal.

Holding throughout (design): species or system Curvularia lunata
Experiment [1] addresses T1, 17-beta-hydroxysteroid-dehydrogenase (Cochliobolus lunatus, UniProt O93874).
T1 sequence (O93874 whole entry): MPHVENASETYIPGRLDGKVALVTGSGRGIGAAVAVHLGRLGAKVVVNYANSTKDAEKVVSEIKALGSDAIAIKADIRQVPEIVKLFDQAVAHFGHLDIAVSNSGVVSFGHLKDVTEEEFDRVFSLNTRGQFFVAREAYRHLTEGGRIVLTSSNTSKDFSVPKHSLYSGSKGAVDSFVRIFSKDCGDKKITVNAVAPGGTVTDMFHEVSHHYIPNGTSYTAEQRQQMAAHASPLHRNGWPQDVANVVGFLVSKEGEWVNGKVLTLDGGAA
Briefly: Inhibitory activity against 17 beta-hydroxysteroid dehydrogenase catalysed oxidation reaction.

The target in experiment [2] is T1, 17-beta-hydroxysteroid-dehydrogenase. Nature of the experiment: Inhibitory activity against 17 beta-hydroxysteroid dehydrogenase catalysed reduction reaction.
Experiment [3] shares this target. Briefly: Inhibitory activity against 17 beta-hydroxysteroid dehydrogenase catalysed oxidation reaction; NI=no inhibition.
Experiment [4] has the same target. Briefly: Inhibitory activity against 17 beta-hydroxysteroid dehydrogenase catalysed reduction reaction; NI=no inhibition.

On to `O=C(OCc1ccccc1)c1cc2ccccc2oc1=O`, for which the half-inhibitory concentration (IC50) in experiment [1] came to 2.7 µM; in experiment [2] (read-out: IC50) it was 8 µM. As to `CC(=O)Nc1ccc(OC(=O)/C=C/c2ccccc2)cc1`, the 50% inhibitory concentration (IC50) in experiment [1] and in experiment [2] (read-out: IC50) was > 200 µM each time. As for `COc1cc(COC(=O)c2cc3ccccc3oc2=O)cc(OC)c1OC`, the IC50 result in experiment [3] and in experiment [4] was “Not Active” each time. Regarding `N#Cc1ccc(OC(=O)/C=C/c2ccccc2)cc1`, the values for the half-inhibitory concentration (IC50) in experiment [1] and in experiment [4] were 13 µM and “Not Active”, respectively. For `O=C(/C=C/c1ccccc1)OCc1cccc(Oc2ccccc2)c1`, the figures for the half-inhibitory concentration (IC50) in experiment [1] and in experiment [4] were 130 µM and “Not Active”, respectively. Take `COc1cc(COC(=O)/C=C/c2ccccc2)cc(OC)c1OC`: the 50% inhibitory concentration (IC50) is 14 µM in experiment [1] and “Not Active” in experiment [4].

Take `O=C(/C=C/c1ccccc1)OCN1C(=O)c2ccccc2C1=O`: the values for the IC50 in experiment [1] and in experiment [4] were 10 µM and “Not Active”, respectively. For the compound `COc1cccc(OC(=O)/C=C/c2ccccc2)c1`, the half-maximal inhibitory concentration (IC50) was 135 µM in experiment [1] and “No inhibition” in experiment [2]. Compound `O=C(/C=C/c1ccccc1)Oc1cccc2ccccc12` yielded a 50% inhibitory concentration (IC50) in experiment [1] of 10 µM. As for `O=C(OCN1C(=O)c2ccccc2C1=O)c1cc2ccccc2oc1=O`, the half-maximal inhibitory concentration (IC50) entry in experiment [3] and in experiment [4] was “Not Active” throughout. Turning to `CCCCCCCC(=O)Nc1ccc(OC(=O)/C=C/c2ccccc2)cc1`, the half-maximal inhibitory concentration (IC50) in experiment [1] and in experiment [2] (read-out: IC50) was > 200 µM each time. As for `O=C(/C=C/c1ccccc1)OCCN1C(=O)c2ccccc2C1=O`, the IC50 is 5 µM in experiment [1] and 90 µM in experiment [2] (read-out: IC50).

With `O=C(OCCN1C(=O)c2ccccc2C1=O)c1cc2ccccc2oc1=O`, the IC50 entry in experiment [3] and in experiment [4] was “Not Active” in each case. In the case of `O=C(/C=C/c1ccccc1)OC1CCCCC1`, the IC50 result in experiment [3] and in experiment [4] was “Not Active” each time.

With `O=C(/C=C/c1ccccc1)OCc1ccccc1` [BENZYL CINNAMATE], the IC50 worked out at 0.7 µM in experiment [1] and 7 µM in experiment [2] (read-out: IC50). For `O=C(/C=C/c1ccccc1)Oc1ccccc1` [PHENYL CINNAMATE], in that order: 26 µM and > 200 µM.
